Measurements from USRE43327E1, “Hydrophobic polyamine analogs and methods for their use” (Aminex Therapeutics, Inc., priority 2001, dated 2012).
Several values for one entry are separate records, joined by “and”; a condition that tells them apart may be missing. Equal entries are not always repeated.

Experiments:
Assay type in all cases: cell-based
SK-OV-3 [1] = experiment: Growth inhibition assay (MTS/PMS) with DFMO, SK-OV-3; settings: in the presence of DFMO (1-5 mM), 1 mM AG, 0.5 μM SPD, six days; repeat determinations; read-out: Cell Line EC50 SK-OV-3
Method: (§1) Medias were obtained from Mediatech, Inc. (Herdon, Va.) and serums from Gibco BRL (Gaithersburg, Md.). 50 U/ml penicillin, 50 μg/ml streptomycin and 2 mM L-glutamine (all from Bio Whittaker, Walkersville, Md.) were included in all cultures. […] When cells were cultured with polyamines or ORI compounds, 1 mM aminoguanidine (AG; Sigma) was included to inhibit serum amine oxidase activity.

PC-3 [2] = experiment: Growth inhibition assay (MTS/PMS) with DFMO, PC-3; settings: in the presence of DFMO (1-5 mM), 1 mM AG, 0.5 μM SPD, six days; repeat determinations; read-out: Cell Line EC50 PC-3
Method: as §1

A375 [3] = experiment: Growth inhibition assay (MTS/PMS) with DFMO, A375; settings: in the presence of DFMO (1-5 mM), 1 mM AG, 0.5 μM SPD, six days; repeat determinations; read-out: Cell Line EC50 A375
Method: as §1

[4] = tested on: 4 cell lines (A375, MDA-MB-231, PC-3, SK-OV-3); experiment: Growth inhibition with DFMO, average over 4 cell lines; settings: for EC50: Table 3, average over cell lines, with DFMO, read-out: AVG. EC50; for growth inhibition / EC50 with polyamine synthesis inhibitor, comparison in words: compared with lysine-spermine conjugates (ORI 1202, ORI 1426) or PAs lacking a hydrophobic domain
MDA-MB-231 [5] = experiment: Growth inhibition assay (MTS/PMS) with DFMO, MDA-MB-231; settings: in the presence of DFMO (1-5 mM), 1 mM AG, 0.5 μM SPD, six days; repeat determinations; read-out: Cell Line EC50 MDA-MB-231
Method: as §1

MDA-MB-231 [6] = experiment: Growth inhibition assay, PA alone, MDA-MB-231; settings: PA alone (no DFMO), six days; repeat determinations; read-out: Cell Line IC50 MDA-MB-231
Method: as §1

PC-3 [7] = experiment: Growth inhibition assay, PA alone, PC-3; settings: PA alone (no DFMO), six days; repeat determinations; read-out: Cell Line IC50 PC-3
Method: as §1

A375 [8] = experiment: Growth inhibition assay, PA alone, A375; settings: PA alone (no DFMO), six days; repeat determinations; read-out: Cell Line IC50 A375
Method: as §1

SK-OV-3 [9] = experiment: Growth inhibition assay, PA alone, SK-OV-3; settings: PA alone (no DFMO), six days; repeat determinations; read-out: Cell Line IC50 SK-OV-3
Method: as §1

CCCCCCCCCCCCCCCCC(=O)NCCCC[C@H](N)C(=O)NCCCNCCCCNCCCN [IA3]
EC50 (SK-OV-3 [1]): 0.097 µM and 0.167 µM
EC50 (PC-3 [2]): 0.022 µM
EC50 (A375 [3]): < 0.01 µM and 0.01 µM
EC50 [4]: 0.053 µM
EC50 (MDA-MB-231 [5]): 0.032 µM and 0.018 µM

CCCCCCCCCCCCCC(=O)NCCCC[C@H](N)C(=O)NCCCNCCCCNCCCN [IA5]
EC50 (SK-OV-3 [1]): 4.6 µM
IC50 (MDA-MB-231 [6]): > 30 µM
IC50 (PC-3 [7]): 9.87 µM
IC50 (A375 [8]): > 30 µM
EC50 (PC-3 [2]): 0.189 µM
EC50 (A375 [3]): 0.025 µM
EC50 [4]: 1.26 µM
IC50 (SK-OV-3 [9]): 21.5 µM
EC50 (MDA-MB-231 [5]): 0.208 µM

CCCCCCCC(=O)NCCCC[C@H](N)C(=O)NCCCNCCCCNCCCN [IA7]
EC50 (SK-OV-3 [1]): > 30 µM
IC50 (MDA-MB-231 [6]): > 30 µM
IC50 (PC-3 [7]): > 30 µM
IC50 (A375 [8]): > 30 µM
EC50 (PC-3 [2]): 1.35 µM and 0.853 µM
EC50 (A375 [3]): 2.3 µM and 1.75 µM
EC50 [4]: 6.23 µM
IC50 (SK-OV-3 [9]): > 30 µM
EC50 (MDA-MB-231 [5]): 1.12 µM

CC(=O)NCCCC[C@H](N)C(=O)NCCCNCCCCNCCCN [IA11]
EC50 (SK-OV-3 [1]): > 30 µM
IC50 (MDA-MB-231 [6]): > 30 µM
IC50 (PC-3 [7]): > 30 µM
IC50 (A375 [8]): > 30 µM
EC50 (PC-3 [2]): 2.3 µM
EC50 (A375 [3]): > 30 µM
growth inhibition / EC50 with polyamine synthesis inhibitor, comparison in words [4]: higher EC50
IC50 (SK-OV-3 [9]): > 30 µM
EC50 (MDA-MB-231 [5]): > 30 µM

NCCCNCCCCNCCCNC(=O)[C@@H](N)CCCCNC(=O)CCCCCCCCC(=O)NCCCC[C@H](N)C(=O)NCCCNCCCCNCCCN [IA19]
EC50 (SK-OV-3 [1]): > 30 µM
IC50 (MDA-MB-231 [6]): > 30 µM
IC50 (PC-3 [7]): > 30 µM
IC50 (A375 [8]): > 30 µM
EC50 (PC-3 [2]): > 30 µM
EC50 (A375 [3]): 0.214 µM
growth inhibition / EC50 with polyamine synthesis inhibitor, comparison in words [4]: no improvement
IC50 (SK-OV-3 [9]): > 30 µM
EC50 (MDA-MB-231 [5]): > 30 µM

NCCCNCCCCNCCCNC(=O)[C@@H](N)CCCCNC(=O)c1ccc(N)cc1 [IA28]
EC50 (SK-OV-3 [1]): > 30 µM
IC50 (MDA-MB-231 [6]): > 30 µM
IC50 (PC-3 [7]): > 30 µM
IC50 (A375 [8]): > 30 µM
EC50 (PC-3 [2]): 0.982 µM
EC50 (A375 [3]): 1.66 µM
IC50 (SK-OV-3 [9]): > 30 µM
EC50 (MDA-MB-231 [5]): > 30 µM

CC(C)CC(=O)NCCCC[C@@H](N)C(=O)NCCCNCCCCNCCCN [IB35]
EC50 (SK-OV-3 [1]): > 100 µM
IC50 (MDA-MB-231 [6]): > 100 µM
IC50 (PC-3 [7]): > 100 µM
IC50 (A375 [8]): > 100 µM
EC50 (PC-3 [2]): > 100 µM
EC50 (A375 [3]): > 100 µM
EC50 [4]: > 100 µM
IC50 (SK-OV-3 [9]): > 100 µM
EC50 (MDA-MB-231 [5]): > 100 µM

CCCCCCCCCCCCCCCC(=O)NC(CCCCN)C(=O)NCCCNCCCCNCCCN (centres unmarked) [ID4]
EC50 (SK-OV-3 [1]): 2.64 µM
IC50 (MDA-MB-231 [6]): 18.6 µM
IC50 (PC-3 [7]): 18.7 µM
IC50 (A375 [8]): 17.9 µM
EC50 (PC-3 [2]): 1.33 µM
EC50 (A375 [3]): 0.44 µM
EC50 [4]: 1.26 µM
IC50 (SK-OV-3 [9]): 18.1 µM
EC50 (MDA-MB-231 [5]): 0.636 µM

CCCCCCCC(=O)NC(CCCCN)C(=O)NCCCNCCCCNCCCN (centres unmarked) [ID7]
EC50 (SK-OV-3 [1]): 17.2 µM
IC50 (MDA-MB-231 [6]): > 30 µM
IC50 (PC-3 [7]): > 30 µM
IC50 (A375 [8]): > 30 µM
EC50 (PC-3 [2]): 7.42 µM
EC50 (A375 [3]): 5.29 µM
EC50 [4]: 9.54 µM
IC50 (SK-OV-3 [9]): > 30 µM
EC50 (MDA-MB-231 [5]): 8.25 µM

NCCCC[C@H](NC(=O)c1ccccc1)C(=O)NCCCNCCCCNCCCN [ID24]
EC50 (SK-OV-3 [1]): > 30 µM
IC50 (MDA-MB-231 [6]): > 30 µM
IC50 (PC-3 [7]): > 30 µM
IC50 (A375 [8]): > 30 µM
EC50 (PC-3 [2]): 3.3 µM
EC50 (A375 [3]): 5.98 µM
IC50 (SK-OV-3 [9]): > 30 µM
EC50 (MDA-MB-231 [5]): 4.75 µM

NCCCCC(NC(=O)c1ccco1)C(=O)NCCCNCCCCNCCCN (centres unmarked) [ID25]
EC50 (SK-OV-3 [1]): > 30 µM
IC50 (MDA-MB-231 [6]): > 30 µM
IC50 (PC-3 [7]): > 30 µM
IC50 (A375 [8]): > 30 µM
EC50 (PC-3 [2]): 5.27 µM
EC50 (A375 [3]): 8.78 µM
IC50 (SK-OV-3 [9]): > 30 µM
EC50 (MDA-MB-231 [5]): 8.76 µM

CCS(=O)(=O)NCCCC[C@H](N)C(=O)NCCCNCCCCNCCCN [IIA2]
EC50 (SK-OV-3 [1]): > 30 µM
IC50 (PC-3 [7]): > 30 µM
IC50 (A375 [8]): > 30 µM
EC50 (PC-3 [2]): > 30 µM
EC50 (A375 [3]): > 30 µM
IC50 (SK-OV-3 [9]): > 30 µM
